≈ marks a conversion by molar mass, not a printed value. Marks after values point to notes of the source that are not given here.
What was measured:
Format in all cases: physicochemical
[1] = cyclic voltammetry of the iron complexes; conditions: for cathodic peak potential of the iron complexes at pH 7.6: pH 7.6, 1:2 metal-to-ligand, E vs. Ag/AgCl/KCl (Figure S13b)
Excerpt: Further differences were observed when the redox behavior of the iron complexes was monitored by cyclic voltammetry. In the case of SISC, only a cathodic peak could be observed in the pH range of the formation of the Fe(III) complexes (not shown), unlike for Pro-SISC-Me (Figure 8b), where quasi-reversible processes could be seen in a wide pH range (3.9–10.8). The cathodic peak measured at pH 7.6 was located at much lower potential than in the case of the SISC complex (−0.59 V vs. −0.38 V, Figure S13b). […] To reveal the coordination mode in the Fe(III)-Pro-SISC-Me complexes, crystallization experiments were performed and single crystals were obtained for the Na[Fe(III)(Pro-SISC-MeH−2)2](H2O)4 complex.
Cyclic voltammograms of the Cu(II) and Fe(III) complexes in 30% (v/v) DMSO/H2O containing 1 mM Cu(NO3)2 or 1 mM or 0.5 mM FeCl3 and 1 mM ligand were recorded at 25.0 ± 0.1 °C. Ionic strength was 0.10 M (TBAN). Measurements were performed on a conventional three-electrode system under nitrogen atmosphere using an Autolab PGSTAT 204 potentiostat/galvanostat monitored by Metrohm’s Nova software (Metrohm Autolab B.V., Utrecht, The Netherlands). Samples were purged with argon for 15 min before recording the cyclic voltammograms. Platinum electrodes were used as the working and auxiliary electrode and Ag/AgCl/3 M KCl as a reference electrode. The electrochemical system was calibrated with an aqueous solution of K3[Fe(CN)6] (E1/2 = +0.386 V vs. NHE).

[2] = stability constants of Cu(II) complexes by pH-potentiometry; conditions: for logβ [CuLH−1] / logβ [CuLH−2]− / logβ [CuL]+: 25 °C, I = 0.10 M (KCl); for pCu(II) (−log[Cu(II)]): calculated at pH 7.4, cCu(II) = 1 μM, cligand = 10 μM
Procedure: Interaction between Pro-SISC-Me and Cu(II) ions could be studied by pH-potentiometry in water due to the adequate solubility of the species (Figure S7b), and the calculated overall stability constants are collected in Table 2. Based on the titration data, formation of only mono-ligand complexes ([CuL]^+, [CuLH−1], [CuLH−2]^−) was observed even at higher metal-to-ligand ratios. Stability constants for the complexes formed with the more lipophilic SISC were determined in the presence of 30% (v/v) DMSO/H2O (Figure S7a), and for the Cu(II)—Pro-SISC-Me system was studied as well in the same solvent system for comparison (Table 2). […] In the case of SISC, the stability constant could not be obtained for the [CuLH−2]^− species as in its formation pH range (>8) precipitation appeared in the solution. The thiosemicarbazone analogues (STSC and Pro-STSC-Me) also form exclusively mono-ligand complexes ([CuLH]^+, [CuL], [CuLH−1]^−), however, protonated complexes could not be found for SISC and Pro-SISC-Me.
The pH-potentiometric measurements for the determination of the proton dissociation constants of the ligands and the overall stability constants of the metal complexes were carried out at 25.0 ± 0.1 °C in water or in 30% (v/v) DMSO/H2O as solvent and at an ionic strength of 0.10 M (KCl). The titrations were performed with carbonate-free KOH solution of known concentration (0.10 M). The concentrations of the base and the HCl were determined by pH-potentiometric titrations. An Orion 710A pH-meter equipped with a Metrohm combined electrode (type 6.0234.100), and a Metrohm 665 Dosimat burette were used for the titrations. […] The average water ionization constant pKw was 13.76 ± 0.05 (water) or 14.52 ± 0.05 (30% (v/v) DMSO/H2O). The pH-potentiometric titrations were performed in the pH range 2.0–12.5. The initial volume of the samples was 10.0 mL. The ligand concentration was 2 mM and metal ion-to-ligand ratios of 1:1–1:3 were used. The accepted fitting of the titration curves was always less than 0.01 mL. Argon was always passed over the solutions during the titrations. The exact concentration of the ligand stock solutions together with the proton dissociation constants were determined by pH-potentiometric titrations with the use of the computer program HYPERQUAD [44]. It was also utilized to establish the stoichiometry of the complexes and to calculate the stability constants (β(MpLqHr)). β(MpLqHr) is defined for the general equilibrium pM + qL + rH ⇋ MpLqHr as β(MpLqHr) = [MpLqHr]/[M]^p[L]^q[H]^r, where M denotes the metal ion and L the completely deprotonated ligand. In all calculations exclusively, titration data were used from experiments in which no precipitate was visible in the reaction mixture.

[3] = thermodynamic solubility at pH 7.4; conditions: 10 mM HEPES buffer, aqueous buffer, thermodynamic from solid, pH 7.4, T = 25 °C, read-out: thermodynamic solubility at pH 7.4 (S7.4)
[4] = proton dissociation constants by 1H NMR titration
Procedure: ^1H NMR spectra recorded for SISC in 30% (v/v) d6-DMSO/H2O (Figure S3) clearly show two deprotonation steps and all the CH protons are sensitive to the changes of the pH. Similarly, the changes in the chemical shifts of the peaks of the aromatic CH and the CH=N protons indicate two steps in the ^1H NMR spectra of Pro-SISC-Me recorded in water (Figure 3a), thus two pKa values were calculated (pK2, pK3 in Table 1). However, this is only true for the major species identified as the E isomer (Figure 3b), while for the other isomer (Z, Figure 3c) only one pKa (7.55 ± 0.02) could be determined. The E and Z geometric isomers are the consequence of the C=N double bond. […] Based on the integrals of the CH=N peaks, the fraction of the E isomer is 86% at pH < 6.5, and it is decreased to 82% reaching pH 11.5; however, the appearance of further minor peaks at pH > 9.8 indicates the presence of other species in low fraction. The same picture is seen when the changes of the CH3 peaks are considered (Figure S4), and only the peak of the CH-COOH proton was sensitive to the first deprotonation process at pH < 3, which confirms that pK1 of Pro-SISC-Me applies to COOH.
The ^1H NMR studies for the ligands were carried out on a Bruker Ultrashield 500 Plus instrument (Billerica, MA, USA). DSS was used as an internal NMR standard and WATERGATE water suppression pulse scheme was used. Spectra were recorded in 10% (v/v) D2O/H2O or in 30% (v/v) DMSO-d6/H2O solvent mixtures in a concentration of 1 mM, respectively, at ionic strength of 0.10 M (KCl).

[5] = Pro-SISC-Me, H2O, major species (E isomer)

Structure (SMILES)	E1/2 of the Fe(III)/Fe(II) redox couple of the iron complexes ([1]; 30% (v/v) DMSO/H2O, 1:2 metal-to-ligand ratio) [V vs. NHE]	cathodic peak potential of the iron complexes at pH 7.6 ([1]; 30% (v/v) DMSO/H2O) [V]	logβ [CuLH−1] ([2]; 30% DMSO)	logβ [CuLH−2]− ([2]; 30% DMSO)	logβ [CuL]+ ([2]; 30% DMSO)	logβ [CuLH−1] ([2]; H2O)	logβ [CuLH−2]− ([2]; H2O)	logβ [CuL]+ ([2]; H2O)	fraction of [CuL]+ at pH 7.4 ([2]; based on the stability constants) [%]	pCu(II) (−log[Cu(II)]) ([2]; 30% DMSO)	pCu(II) (−log[Cu(II)]) ([2]; H2O)	solubility thermodynamic [3] [mM]	pK1 (H3L2+) [4, 5]	pK2 (H2L+) [4, 5]	pK3 (HL) [4, 5]	pKa ([4]; water, only one pKa could be determined, read-out: pKa of the minor (Z) isomer)	cathodic peak potential of the iron complex (only a cathodic peak) ([1]; [Fe(III)L2]+ complex) [V vs. NHE]	pK1 (H2L+) ([4]; SISC, 30% DMSO/H2O)	pK2 (HL) ([4]; SISC, 30% DMSO/H2O)
Cc1cc(C=NNC(=N)N)c(O)c(CN2CCCC2C(=O)O)c1 (stereo not drawn) [Pro-SISC-Me]	−0.32	−0.59	6.57 ± 0.05	−4.42 ± 0.06	15.08 ± 0.02	6.96 ± 0.03	−3.22 ± 0.04	14.99 ± 0.02	100	13.39	13.59	~10 (≈ 3190 µg/mL)	≤2.5 ^c	7.25 ± 0.03 ^c	9.75 ± 0.03 ^c	7.55	–	–	–
N=C(N)NN=Cc1ccccc1O [SISC, 2-(2-hydroxybenzylidene)hydrazinecarboximidamide]	–	−0.38	6.28 ± 0.07	–	14.74 ± 0.02	–	–	–	–	12.08	–	~2 (≈ 356 µg/mL)	–	–	–	–	−0.17	7.68 ± 0.03	10.72 ± 0.03

— publication PMC9000575, “Solution Equilibrium Studies on Salicylidene Aminoguanidine Schiff Base Metal Complexes: Impact of the Hybridization with L-Proline on Stability, Redox Activity and Cytotoxicity” (Molecules, 2022)
